Columns and labels:
Assay type in all cases: cell-based
Lovo (G13D) cells = assay: Cell viability assay (CELLTITER-GLO), Lovo cells; conditions: Homo sapiens, 72 h, Inhibition of cancerous cells, 3 days incubation, luminescence
Protocol: (§1) AsPC-1, H358, and SW48 cells were cultured in RPMI 1640 media supplemented with 10% fetal bovine serum, streptomycin, and penicillin. Lovo and SW480 cells were cultured in DMEM media supplemented with 10% fetal bovine serum, streptomycin, and penicillin. The cell lines were plated in their respective medium supplemented with 2.5% fetal bovine serum, streptomycin, and penicillin. All cell lines were plated in white walled 96-well plates at 2,000 cells/well or 384-well plates at 500 cells/well, except Lovo, which were plated at 4,000 or 1,000 cells/well, respectively. The cells were incubated in DMSO (control) or a compound for 3 days at 37° C. under 5% CO2. A CELLTITER-GLO® reagent ([…] was then added to each well. After a 10 min incubation with shaking, luminescence was measured using an ENVISION® multimode plate reader. IC50 values are summarized in Table 1.

SW480 (G12V) cells = assay: Cell viability assay (CELLTITER-GLO), SW480 cells; conditions: Homo sapiens, 72 h, Inhibition of cancerous cells, 3 days incubation, luminescence
Protocol: as §1

SW48 (wt) cells = assay: Cell viability assay (CELLTITER-GLO), SW48 cells; conditions: Homo sapiens, 72 h, Inhibition of cancerous cells, 3 days incubation, luminescence
Protocol: as §1

H358 (G12C) cells = assay: Cell viability assay (CELLTITER-GLO), H358 cells; conditions: Homo sapiens, NCI-H358, 72 h, Inhibition of cancerous cells, 3 days incubation, luminescence
Protocol: as §1

SOS1 = target: T1, SOS1 (Homo sapiens, UniProt Q07889); assay: Protein degradation assay (western blot) in MV-4-11 cells; conditions: 6 h; for Degradation 3 μM (SOS1 protein, % degradation relative to DMSO control): compound at 3 μM; for Degradation 10 μM (SOS1 protein, % degradation relative to DMSO control): compound at 10 μM
T1 construct: Whole cell extracts were prepared using an immunoprecipitation (IP) lysis buffer; endogenous in cells; host or cells: MV-4-11
T1 sequence (Q07889 1-1333): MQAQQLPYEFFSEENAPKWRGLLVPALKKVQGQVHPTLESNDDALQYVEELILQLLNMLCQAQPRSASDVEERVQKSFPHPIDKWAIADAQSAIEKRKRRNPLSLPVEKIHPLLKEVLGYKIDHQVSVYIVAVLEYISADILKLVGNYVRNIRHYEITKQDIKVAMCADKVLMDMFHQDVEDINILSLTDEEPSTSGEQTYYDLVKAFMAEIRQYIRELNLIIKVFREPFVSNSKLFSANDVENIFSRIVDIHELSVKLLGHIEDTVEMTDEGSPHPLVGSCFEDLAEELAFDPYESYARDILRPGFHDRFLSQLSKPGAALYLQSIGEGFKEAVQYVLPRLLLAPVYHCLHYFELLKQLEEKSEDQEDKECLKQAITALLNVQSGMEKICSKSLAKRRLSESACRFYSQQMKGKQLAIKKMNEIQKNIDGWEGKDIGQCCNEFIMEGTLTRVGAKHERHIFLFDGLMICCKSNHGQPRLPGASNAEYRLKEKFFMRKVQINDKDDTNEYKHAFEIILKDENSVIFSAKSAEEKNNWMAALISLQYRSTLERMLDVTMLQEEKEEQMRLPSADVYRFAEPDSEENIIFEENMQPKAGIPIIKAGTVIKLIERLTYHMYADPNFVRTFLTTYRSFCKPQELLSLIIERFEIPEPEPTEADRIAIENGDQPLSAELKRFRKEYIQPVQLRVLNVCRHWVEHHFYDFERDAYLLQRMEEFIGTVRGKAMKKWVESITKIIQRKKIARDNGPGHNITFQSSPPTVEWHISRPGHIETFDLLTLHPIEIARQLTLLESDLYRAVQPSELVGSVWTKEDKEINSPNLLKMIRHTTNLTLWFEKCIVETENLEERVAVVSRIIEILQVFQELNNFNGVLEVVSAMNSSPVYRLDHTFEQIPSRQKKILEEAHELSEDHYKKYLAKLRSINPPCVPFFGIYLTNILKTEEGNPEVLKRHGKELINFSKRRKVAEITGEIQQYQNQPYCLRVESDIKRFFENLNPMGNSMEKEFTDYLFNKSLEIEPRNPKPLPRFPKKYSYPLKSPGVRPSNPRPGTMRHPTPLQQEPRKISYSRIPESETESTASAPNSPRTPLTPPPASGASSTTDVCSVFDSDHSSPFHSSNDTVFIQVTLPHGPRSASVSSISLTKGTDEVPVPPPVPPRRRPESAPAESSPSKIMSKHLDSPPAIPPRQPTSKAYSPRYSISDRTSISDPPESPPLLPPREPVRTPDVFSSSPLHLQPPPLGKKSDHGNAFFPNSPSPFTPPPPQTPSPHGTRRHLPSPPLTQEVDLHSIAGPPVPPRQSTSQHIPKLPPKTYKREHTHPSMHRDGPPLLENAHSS
Protocol: MV-4-11 cells were grown in RPMI 1640 media supplemented with 10% fetal bovine serum, streptomycin, and penicillin. The cells were plated in 24-well plates in the growth media. The cells were then treated with a compound at indicated concentrations for 6 h. Whole cell extracts were prepared using an immunoprecipitation (IP) lysis buffer. Briefly, the cells were washed once in PBS, and the cell pellets were resuspended in the IP lysis buffer and incubated for 15 min on ice. Cell debris was removed by centrifugation and the cleared whole cell lysates were transferred to new tubes for further analysis.
For a western blot analysis, the whole cell protein extracts were separated on 4-12% SDS-polyacrylamide gels, transferred to nitrocellulose, and probed with primary antibodies. The nitrocellulose was subsequently washed and probed with IRDYE® secondary antibodies. The signals were detected using an ODYSSEY® Imaging System. The antibodies used in the assay included anti-SOS1; anti-KRAS; β-actin mouse monoclonal antibody; IRDYE® 680RD goat anti-rabbit antibody; and IRDYE® 800CW goat anti-mouse antibody.
[…] The % degradation values relative to the DMSO control are reported as “A,” “B,” “C,” or “D;” where “A” represents a percentage degradation value of no less than 50%; “B” represents a percentage degradation value of less than 50% and no less than 25%; “C” represents a percentage degradation value of less than 25% and no less than 10%; and “D” represents a percentage degradation value of less than 10%.

| SMILES | IC50 (Lovo (G13D) cells) [µM] | IC50 (SW480 (G12V) cells) [µM] | IC50 (SW48 (wt) cells) [µM] | IC50 (H358 (G12C) cells) [µM] | Degradation 3 μM (SOS1 protein, % degradation relative to DMSO control) (SOS1) | Degradation 10 μM (SOS1 protein, % degradation relative to DMSO control) (SOS1) |
| --- | --- | --- | --- | --- | --- | --- |
| COc1cc2c(N[C@H](C)c3cccc(Br)c3)nc(C)nc2cc1OCCCCCCCN1CCCCC1 [Compound A1, (R)—N-(1-(3-bromophenyl)ethyl)-6-methoxy-2-methyl-7-((7-(piperidin-1-yl)heptyl)oxy)quinazolin-4-amine] | 0.63 | 0.52 | 0.68 | 1.1 | B (a percentage degradation value of less than 50% and no less than 25%) | A (a percentage degradation value of no less than 50%) |
| CNCc1ccccc1-c1csc([C@@H](C)Nc2nc(CCCCCCCCN3CCCCC3)nc3cc(OC)c(OC)cc23)c1 [Compound C1, (R)-6,7-Dimethoxy-N-(1-(4-(2-((methylamino)methyl)phenyl)thiophen-2-yl)ethyl)-2-(8-(piperidin-1-yl)octyl)quinazolin-4-amine] |  |  |  |  | D (a percentage degradation value of less than 10%) | D (a percentage degradation value of less than 10%) |

From patent US20240197888A1, “SOS1 PROTEIN DEGRADERS, PHARMACEUTICAL COMPOSITIONS THEREOF, AND THEIR THERAPEUTIC APPLICATIONS” (BioTheryX, Inc., priority 2021, published 2024)
